Data: US20120263719A1, “COMPOSITIONS AND METHODS FOR TREATING ASPERGILLOSIS” (priority 2009, published 2012)
≈ marks a conversion by molar mass, not a printed value. Read-outs that look alike come from different tables or passages of the source.

Legend:
AF-infected mice = assay: Animal survival experiment in AF-infected immunosuppressed mice (36 days); format: in vivo; conditions: group 8: 1 mg/kg i.t.
Aspergillus fumigatus = assay: In vitro antifungal activity (NCCLS M27-A; MIC/MFC, hyphal growth); format: cell-based; conditions: for MFC: Aspergillus fumigatus
Experimental: The antifungal activity of mAb (MPS5.44)-alliinase conjugates was determined according to the conditions of National Committee for Clinical Laboratory Standards (NCCLS) document M27-A. Resting conidia (3×10^4 conidia/well) were seeded in 96-well plates and incubated for 4 hours at 37° C. with RPMI/MOPS (100 μl). mAb-alliinase conjugate was applied in serial 2-fold dilutions, in triplicates and incubated for 30 min at 37° C., then washed four times followed by the addition of alliin (0.5 mg/ml). Hyphal growth was monitored by microscopic observation as well as by optical density (OD595), or by fluorescence of the strain CBS/DsRed (excitation at 540 nm, emission at 595 nm). The MIC of the conjugate was determined after 72 hours. The wells in which no fungal germination was detected, were scraped and plated on Sabouraud plates and the number of colonies was counted after 72 hours to determine the MFC. As a control, the antifungal activity was also determined by incubating AF as above with non-conjugated alliinase or with conjugates consisting of the non-specific mAb and alliinase.

C[C@@H]1[C@H](O)[C@@H](C)/C=C/C=C/C=C/C=C/C=C/C=C/C=C/[C@H](O[C@@H]2O[C@H](C)[C@@H](O)[C@H](N)[C@@H]2O)C[C@@H]2O[C@](O)(C[C@@H](O)C[C@@H](O)[C@H](O)CC[C@@H](O)C[C@@H](O)CC(=O)O[C@H]1C)C[C@H](O)[C@H]2C(=O)O [Amphotericin B]
MST (AF-infected mice; n=10): 18 days
survival at the end of the experiment (AF-infected mice; n=10, 36 d): 30%

C=CCS[S+]([O-])CC=C (stereo not drawn) [allicin, diallyl-dithiosulfinate]
MFC (Aspergillus fumigatus; read-out: MFC, resting conidia): 15 µg/mL (≈ 92.4 µM)
MFC (Aspergillus fumigatus; read-out: MFC, swollen conidia): 7.5 µg/mL (≈ 46.2 µM)
MFC (Aspergillus fumigatus; pure allicin, data not shown, read-out: MFC, hyphae): 30 µg/mL (≈ 185 µM)

(+)S-Allyl-cysteine sulfoxide [alliin]
growth of Aspergillus cells treated with one component only (Aspergillus fumigatus; alliin without conjugate, or conjugate without alliin): not inhibited in their growth
